Counter-ions that a name gives are not always drawn.

This note sets out measurements from patent US20150031668A1, “CHROMAN DERIVATIVES AS TRPM8 INHIBITORS” (AMGEN INC., priority 2013, published 2015).

T1 sequence (Q7Z2W7 whole entry): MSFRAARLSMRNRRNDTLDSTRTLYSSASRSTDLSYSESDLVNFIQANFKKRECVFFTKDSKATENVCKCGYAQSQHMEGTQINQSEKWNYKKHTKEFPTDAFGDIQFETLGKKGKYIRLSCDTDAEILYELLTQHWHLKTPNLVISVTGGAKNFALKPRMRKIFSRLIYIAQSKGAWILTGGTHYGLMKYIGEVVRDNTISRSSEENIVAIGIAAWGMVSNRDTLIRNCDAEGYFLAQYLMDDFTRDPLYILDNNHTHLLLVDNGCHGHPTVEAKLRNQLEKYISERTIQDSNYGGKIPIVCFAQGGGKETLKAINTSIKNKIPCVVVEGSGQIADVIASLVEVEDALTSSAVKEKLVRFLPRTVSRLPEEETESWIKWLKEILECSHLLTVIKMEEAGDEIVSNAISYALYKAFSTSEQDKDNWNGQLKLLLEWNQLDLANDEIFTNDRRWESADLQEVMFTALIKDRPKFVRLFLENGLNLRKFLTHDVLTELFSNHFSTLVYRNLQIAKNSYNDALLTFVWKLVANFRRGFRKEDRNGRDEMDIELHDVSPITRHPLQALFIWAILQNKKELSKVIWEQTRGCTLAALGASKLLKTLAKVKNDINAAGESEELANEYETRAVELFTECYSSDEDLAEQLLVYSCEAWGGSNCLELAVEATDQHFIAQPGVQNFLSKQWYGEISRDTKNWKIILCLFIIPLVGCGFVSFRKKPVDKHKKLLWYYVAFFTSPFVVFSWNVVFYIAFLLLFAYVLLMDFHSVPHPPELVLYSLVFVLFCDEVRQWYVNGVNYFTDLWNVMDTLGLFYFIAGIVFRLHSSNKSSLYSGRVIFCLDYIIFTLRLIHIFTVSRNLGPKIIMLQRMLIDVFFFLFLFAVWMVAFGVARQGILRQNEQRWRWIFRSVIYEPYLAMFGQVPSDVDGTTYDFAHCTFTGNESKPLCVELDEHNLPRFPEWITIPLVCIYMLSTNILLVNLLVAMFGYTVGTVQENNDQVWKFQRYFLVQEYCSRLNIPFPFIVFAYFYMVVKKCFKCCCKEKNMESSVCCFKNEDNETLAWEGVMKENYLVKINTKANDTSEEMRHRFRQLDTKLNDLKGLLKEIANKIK

This test concerns the target T1, human TRPM8 (Homo sapiens, UniProt Q7Z2W7).
T1 construct: expressed in transfected cells; host or cells: Chinese hamster ovary (CHO) cells, T-REx tetracycline-inducible expression system (Invitrogen); co-transfected with pcDNA3.1 aequorin
Briefly: Luminescence readout assay for measuring intracellular calcium (aequorin, CHO cells expressing human TRPM8; icilin, L-menthol or cold activation). In kind it is cell-based. Particulars: CHO cells expressing human TRPM8, icilin activation (1 μM), aequorin luminescence; read-out: hTRPM8 IC50. As for the experimental part:
Luminescence Readout Assay for Measuring Intracellular Calcium
A stable Chinese hamster ovary cell line expressing human TRPM8 was generated using tetracycline inducible T-REx™ expression system from Invitrogen, Inc. (Carlsbad, Calif.). […] Twenty four hours before the assay, cells were seeded in 96-well plates and TRPM8 expression was induced with 0.5 μg/ml tetracycline. On the day of the assay, culture media was removed and cells were incubated with assay buffer
Potential antagonists were added 2.5 min prior to the addition of agonist, 1 μM icilin, 100 μM L-menthol, or 1 min prior to the addition of cold buffer (<10° C.). The luminescence was measured by a CCD camera based FLASH-luminometer built by Amgen, Inc. A cooling device attached to FLASH luminometer was used for cold activation.
Regarding `O=C(N[C@]1(c2ccc(C(F)(F)F)cc2)CCOc2cccnc21)c1ccc2cc[nH]c2c1` [Example 36, (S)-N-(4-(4-(trifluoromethyl)phenyl)-3,4-dihydro-2H-pyrano[3,2-b]pyridin-4-yl)-1H-indole-6-carboxamide], the IC50 (in general, the concentration at which inhibition is half-maximal) was determined as 36 nM.
For `O=C(N[C@]1(c2ccc(-c3cccc(F)c3O)cc2)CCOc2cccnc21)c1ccc(F)cc1` [Example 134, (S)-4-fluoro-N-(4-(3′-fluoro-2′-hydroxy-[1,1′-biphenyl]-4-yl)-3,4-dihydro-2H-pyrano[3,2-b]pyridin-4-yl)benzamide], the half-maximal inhibitory concentration (IC50) turned out to be 320 nM.
For `O=C(Nc1cnccn1)N[C@]1(c2ccc(OC(F)(F)F)c(F)c2)CCOc2cccnc21` [Example 82, (S)-1-(4-(3-fluoro-4-(trifluoromethoxy)phenyl)-3,4-dihydro-2H-pyrano[3,2-b]pyridin-4-yl)-3-(pyrazin-2-yl)urea] the value was 134 nM; for `CC(=O)Nc1ccc(-c2ccc([C@@]3(NC(=O)c4ccc(F)cc4)CCOc4cccnc43)cc2)cc1` [Example 121, (S)-N-(4-(4′-acetamido-[1,1′-biphenyl]-4-yl)-3,4-dihydro-2H-pyrano[3,2-b]pyridin-4-yl)-4-fluorobenzamide], 1250 nM; for `Cn1c(C(=O)O)ccc1C(=O)N[C@]1(c2ccc(OC(F)(F)F)c(F)c2)CCOc2cccnc21` [Example 324, (S)-5-((4-(3-fluoro-4-(trifluoro-methoxy)phenyl)-3,4-dihydro-2H-pyrano[3,2-b]pyridin-4-yl)carbamoyl)-1-methyl-1H-pyrrole-2-carboxylic acid], 103 nM.
The result for `Cc1cc(C(=O)N[C@]2(c3ccc(OC(F)(F)F)c(F)c3)CCOc3cccnc32)ncc1C(=O)O` [Example 333, (S)-6-((4-(3-fluoro-4-(trifluoromethoxy)phenyl)-3,4-dihydro-2H-pyrano[3,2-b]pyridin-4-yl)carbamoyl)-4-methylnicotinic acid] reads 25 nM; that for `Cc1noc(C)c1-c1ccc([C@@]2(NC(=O)c3ccc(F)cc3)CCOc3cccnc32)cc1` [Example 125, (S)-N-(4-(4-(3,5-dimethylisoxazol-4-yl)phenyl)-3,4-dihydro-2H-pyrano[3,2-b]pyridin-4-yl)-4-fluorobenzamide], 429 nM.
For `CC(=O)c1ccc(C(=O)N[C@]2(c3ccc(OC(F)(F)F)c(F)c3)CCOc3cccnc32)cc1` [Example 156, (S)-4-acetyl-N-(4-(3-fluoro-4-(trifluoromethoxy)phenyl)-3,4-dihydro-2H-pyrano[3,2-b]pyridin-4-yl)benzamide] the value was 8 nM.
Consider `COC(=O)c1ccn(CC(=O)N[C@]2(c3ccc(OC(F)(F)F)c(F)c3)CCOc3cccnc32)c1` [Example 193, (S)-melhyl 1-(2-((4-(3-fluoro-4-(trifluoromethoxy)phenyl)-3,4-dihydro-2H-pyrano[3,2-b]pyridin-4-yl)amino)-2-oxoethyl)-1H-pyrrole-3-carboxylate], for which the IC50 is 584 nM.
On to `Cn1c(C(=O)O)cc2ccc(C(=O)N[C@]3(c4ccc(OC(F)(F)F)c(F)c4)CCOc4cccnc43)cc21` [Example 322, (S)-6-((4-(3-fluoro-4-(trifluoro-methoxy)phenyl)-3,4-dihydro-2H-pyrano[3,2-b]pyridin-4-yl)carbamoyl)-1-methyl-1H-indole-2-carboxylic acid], for which the IC50 stood at 9 nM.
Consider `O=C(N[C@]1(c2ccc(C(F)(F)F)cc2)CCOc2cccnc21)c1ccccc1` (single isomer, unassigned) [Example 1], for which the IC50 is 14 nM.
On to `O=C(N[C@]1(c2ccc(OC(F)(F)F)cc2)CCOc2cccnc21)c1c[nH]c2ncccc12` [Example 217, (S)-N-(4-(4-(trifluoromethoxy)phenyl)-3,4-dihydro-2H-pyrano[3,2-b]pyridin-4-yl)-1H-pyrrolo[2,3-b] pyridine-3-carboxamide fonnate], for which the half-maximal inhibitory concentration (IC50) stood at 46 nM.
For `COC(=O)c1cc2ccc(C(=O)N[C@]3(c4ccc(OC(F)(F)F)c(F)c4)CCOc4cccnc43)cc2[nH]1` [Example 209, (S)-methyl 6-((4-(3-fluoro-4-(trifluoromethoxy)phenyl)-3,4-dihydro-2H-pyrano[3,2-b]pyridin-4-yl)carbamoyl)-1H-indole-2-carboxylate], the IC50 was 45 nM.
For `O=C(O)C1CCN(C(=O)N[C@]2(c3ccc(OC(F)(F)F)c(F)c3)CCOc3cccnc32)CC1` [Example 110] the value was 585 nM; for `O=C(N[C@]1(c2ccc(OC(F)(F)F)cc2)CCOc2cccnc21)C1Cc2ccccc2O1` (stereo partly drawn) [Example 246, N-((S)-4-(4-(trifluoromethoxy)phenyl)-3,4-dihydro-2H-pyrano[3,2-b]pyridin-4-yl)-2,3-dihydrobenzo furan-2-carboxamide formate], 94.4 nM; for `O=C(N[C@]1(c2ccc(OC(F)(F)F)c(F)c2)CCOc2cccnc21)N1CCCCC1` [Example 98, (S)-N-(4-(3-fluoro-4-(trifluoromethoxy)phenyl)-3,4-dihydro-2H-pyrano[3,2-b]pyridin-4-yl)piperidine-1-carboxamide], 23 nM.
As for `COc1ccc(-c2ccc([C@@]3(NC(=O)c4ccc(F)cc4)CCOc4cccnc43)cc2)c(CO)c1` [Example 136, (S)-4-fluoro-N-(4-(2′-(hydroxymethyl)-4′-methoxy-[1,1′-biphenyl]-4-yl)-3,4-dihydro-2H-pyrano[3,2-b]pyridin-4-yl)benzamide], the half-inhibitory concentration (IC50) was determined as 784 nM.
For `O=C(NC1(c2ccc(OC(F)(F)F)cc2)CCOc2cccnc21)c1ccccc1` (stereo not drawn) [Example 9, N-(4-(4-(trifluoromethoxy)phenyl)-3,4-dihydro-2H-pyrano[3,2-b]pyridin-4-yl)benzamide] the value was 38 nM; for `O=C(NC1(c2ccc(OC(F)(F)F)cc2)CCOc2cccnc21)c1ccc2[nH]c(=O)oc2c1` (stereo not drawn) [Example 22, 2-oxo-N-(4-(4-(trifluoromethoxy)phenyl)-3,4-dihydro-2H-pyrano[3,2-b]pyridin-4-yl)-2,3-dihydrobenzo[d]oxazole-6-carboxamide], 14 nM; for `O=C(N[C@]1(c2ccc(OC(F)(F)F)cc2)CCOc2cccnc21)c1nc2ccccc2[nH]1` [Example 241, (S)-N-(4-(4-(trifluoromethoxy)phenyl)-3,4-dihydro-2H-pyrano[3,2-b]pyridin-4-yl)-1H-benzo[d]imidazole-2-carboxamide formate], 769 nM.
In the case of `CC(C)c1cc(C(=O)N[C@]2(c3ccc(OC(F)(F)F)c(F)c3)CCOc3cccnc32)ccc1C(=O)O` [Example 292, (S)-4-((4-(3-fluoro-4-(trifluoromethoxy)phenyl)-3,4-dihydro-2H-pyrano[3,2-b]pyridin-4-yl)carbamoyl)-2-isopropylbenzoic acid], the half-inhibitory concentration (IC50) was determined as 14 nM.
Consider `O=C(N[C@]1(c2ccc(-c3ccccn3)cc2)CCOc2cccnc21)c1ccc(F)cc1` [Example 112, (S)-4-fluoro-N-(4-(4-(pyridin-2-yl)phenyl)-3,4-dihydro-2H-pyrano[3,2-b]pyridin-4-yl)benzamide], for which the IC50 came out at 233 nM.
Take `O=C(Nc1cnccc1Br)N[C@]1(c2ccc(OC(F)(F)F)c(F)c2)CCOc2cccnc21` [Example 94, (S)-1-(4-bromopyridin-3-yl)-3-(4-(3-fluoro-4-(trifluoromethoxy)phenyl)-3,4-dihydro-2H-pyrano[3,2-b]pyridin-4-yl)urea]: the IC50 amounted to 230 nM.
For `O=C(N[C@]1(c2ccc(OC(F)(F)F)cc2)CCOc2cccnc21)c1ccc2cnccc2c1` [Example 250, (S)-N-(4-(4-(trifluoromethoxy)phenyl)-3,4-dihydro-2H-pyrano[3,2-b]pyridin-4-yl)isoquinoline-6-carboxamide formate] the value was 15 nM; for `O=C(Nc1ccccc1C(=O)O)N[C@]1(c2ccc(OC(F)(F)F)c(F)c2)CCOc2cccnc21` [Example 106, (S)-2-(3-(4-(3-fluoro-4-(trifluoromethoxy)phenyl)-3,4-dihydro-2H-pyrano[3,2-b]pyridin-4-yl)ureido)benzoic acid], 39 nM.
Take `COC(=O)c1cccc(NC(=O)N[C@]2(c3ccc(OC(F)(F)F)c(F)c3)CCOc3cccnc32)c1` [Example 91, (S)-methyl 3-(3-(4-(3-fluoro-4-(trifluoromethoxy)phenyl)-3,4-dihydro-2H-pyrano[3,2-b]pyridin-4-yl)ureido)benzoate]: the half-maximal inhibitory concentration (IC50) is 19 nM.
The result for `O=C(Nc1cccc(C(=O)O)c1)N[C@]1(c2ccc(OC(F)(F)F)c(F)c2)CCOc2cccnc21` [Example 107, (S)-3-(3-(4-(3-fluoro-4-(trifluoromethoxy)phenyl)-3,4-dihydro-2H-pyrano[3,2-b]pyridin-4-yl)ureido)benzoic acid] reads 150 nM; that for `O=C(N[C@]1(c2ccc(C(F)(F)F)cc2)CCOc2cccnc21)c1ccc(O)cc1` (single isomer, unassigned) [Example 4], 9 nM; that for `CCOc1cnc(-c2ccc([C@@]3(NC(=O)c4ccc(F)cc4)CCOc4cccnc43)cc2)cn1` [Example 117, (S)-N-(4-(4-(5-ethoxypyrazin-2-yl)phenyl)-3,4-dihydro-2H-pyrano[3,2-b]pyridin-4-yl)-4-fluorobenzamide], 73.7 nM.
With `O=C(N[C@]1(c2ccc(OC(F)(F)F)c(F)c2)CCOc2cccnc21)c1ccc2[nH]c(=O)c(=O)[nH]c2c1` [Example 64, (S)—N-(4-(3-fluoro-4-(trifluoromethoxy)phenyl)-3,4-dihydro-2H-pyrano[3,2-b]pyridin-4-yl)-2,3-dioxo-1,2,3,4-tetrahydroquinoxaline-6-carboxamide], the IC50 came to 335 nM.
